Test results taken from patent publication US10195209B2, “Anti-huLRRC15 antibody drug conjugates and methods for their use” (AbbVie Inc., priority 2015, dated 2019).

Tests used:
[1] = test system: CTG-1095 (human osteosarcoma) patient-derived xenograft; test: CTG-1095 patient-derived osteosarcoma xenograft model; type: in vivo, NSG mice
Excerpt: (§1) Female NSG mice were implanted unilaterally on the left flank region with CTG-1095 tumor fragments harvested from host animals, each implanted from a specific passage lot. When tumors reached approximately 250-350 mm^3, animals were matched by tumor volume into treatment and control groups and dosing initiated (Day 0).
In FIG. 18C, female NSG mice were implanted unilaterally on the left flank region with CTG-1095 tumor fragments harvested from host animals, each implanted from a specific passage lot. When tumors reached approximately 150-300 mm^3, animals were matched by tumor volume into treatment and control groups and dosing initiated (Day 0). Dosing with isotype mAb or ADCs was performed IP at 12 mg/kg Q4Dx6 (one dose given every 4 days for a total of 6 doses), while cisplatin was dosed intraperitoneally Q7Dx2 (once every 7 days for a total of 2 doses) at 7.5 mg/kg.
(§2) In FIG. 18D, female NSG mice were implanted unilaterally on the left flank region with CTG-1095 tumor fragments harvested from host animals, each implanted from a specific passage lot. When tumors reached approximately 200 mm^3, animals were matched by tumor volume into treatment and control groups and dosing initiated (Day 0). Dosing with isotype mAb or ADCs was performed IP at 6 mg/kg on a Q4Dx6 (one dose given every 4 days for a total of 6 doses), while gemcitabine was dosed IP Q3Dx4 (every 3 days for a total of 4 doses) at 80 mg/kg.

[2] = test system: CTG-0241 (human osteosarcoma) patient-derived xenograft; test: CTG-0241 patient-derived osteosarcoma xenograft model; type: in vivo, nu/nu mice
Excerpt: as §1, with “nu/nu” for “NSG”, “CTG-0241” for “CTG-1095”
as §2, with “18B,” for “18D,”, “nu/nu” for “NSG”, “CTG-0241” for “CTG-1095”, “250-350” for “200”, “while cisplatin was dosed IP Q7Dx3 (once every 7 days for a total of 3 doses) at 7.5 mg/kg, doxorubicin was dosed intravenously (IV) once daily at 1 mg/kg for 5 days,” for “while”, “80 mg/kg, and ifosfamide was dosed IP QDx3 (one dose given every day for a total of 3 doses) at 120” for “80”

[3] = test system: U118MG (glioblastoma) xenograft tumors; test: U118MG glioblastoma xenograft model; type: in vivo, SCID mice
Description: For the experiments, ten million cells (U118MG) that were grown in vitro were inoculated subcutaneously per mouse into the right flank of female SCID mice. Tumors were size matched at˜100 mm^3, and dosed intraperitoneally (IP) Q6Dx2 (1 dose given every 6 days for a total of 2 doses) as shown in FIG. 14A. Measurements of the length (L) and width (W) of the tumors were taken via electronic caliper and the volume was calculated according to the following equation: V=L×W^2/2.
For the experiment, U118MG human glioblastoma cells were grown in vitro, and were inoculated subcutaneously (10 million cells per mouse) into the right flank of female SCID mice. Tumors were size matched at ˜150 mm^3, antibodies and immunoconjugates were administered IP Q4Dx6 (one dose give every 4 days for a total of 6 doses) at 10 or 6 mg/kg, respectively. At Day 165 post sizematch when tumors had regrown to ˜450 mm^3, animals were retreated with huM25-vcMMAE-DAR4 IP Q4Dx3 (one dose given every 4 days for a total of 3 doses) at 6 mg/kg.
Four preparations of huM25-vcMMAE that differed in their relative DAR profile (E2, E2/E4, E4 or DAR4) were tested for efficacy in U118MG tumors. […]
The potency of anti-huLRRC15 ADCs as compared to current standards of care was assessed in xenograft model U118MG (glioblastoma), and patient-derived xenograft models CTG-0241 osteosarcoma) and CTG-1095 (osteosarcoma). […]

[4] = test system: G292 clone A141B1 (osteosarcoma) cells; test: In vitro cell killing assay (Cell TiterGlo), G292 clone A141B1; type: cell-based, human; details: G292 clone A141B1, 4 days
Description: (§3) In the in vitro cell killing assays, cells are seeded at 500-3000 cells per well into 96-well plates with varying concentrations ([…]) of antibodies and ADCs. The cells are incubated for 4 days in culture and then the percent cell viability relative to untreated cells is determined using Cell TiterGlo™ which measures ATP content within the treated cells.

[5] = test system: EBC-1 (squamous NSCLC) cells; test: In vitro cell killing assay (Cell TiterGlo), huLRRC15-negative EBC-1; type: cell-based, human; details: huLRRC15-negative EBC-1, 4 days
Description: as §3

[6] = Rat tolerability experiment; type: in vivo, Sprague Dawley wild type rats; details: single IV dose at MMAE equivalent levels, FIG. 16A
Description: The safety profiles of E2, E4 and E2/E4 preparations of huM25-vcMMAE ADCs were assessed in a rat tolerability experiment (FIGS. 16A, 16B). For the assay, Sprague Dawley wild type rats were dosed with a single IV dose at MMAE equivalent levels of each antibody drug conjugate. […] Double the protein antibody dose was delivered with equal amounts of MMAE, and improved survival for E2 was seen over E4. Fewer deaths occurred in the animals dosed with E2 than E4 ADCs, and the deaths that did occur happened later on Day 8. Broad drug distribution DAR4 has an MTD of 20 mg/kg.

[7] = test system: RPMI-7951 (melanoma) cells; test: In vitro cell killing assay (Cell TiterGlo), RPMI-7951; type: cell-based, human; details: RPMI-7951, 4 days
Description: as §3

[8] = test system: U118MG (glioblastoma) cells; test: In vitro cell killing assay (Cell TiterGlo), U118MG; type: cell-based, human; details: 4 days, percent cell viability by Cell TiterGlo
Description: as §3
Preparation of the huM25-PBD-DAR2 ADC was accomplished according to the procedure described in Example 8.
FIG. 13E depicts the potent in vitro 4-day cell killing ability of anti-huLRRC15 ADC huM25-PBD-DAR2 as compared with the isotype control PBD DAR2 ADC in U118MG (glioblastoma) cells.

[9] = test system: human BM-MSC (Lonza) mesenchymal stem cells; test: In vitro cell killing, human BM-MSC treated with TGFβ; type: cell-based; details: 10 ng/mL TGFβ, same doses
[10] = gemcitabine alone, 80 mg/kg IP Q3Dx4, FIG. 18D
[11] = ADC alone, 6 mg/kg IP Q4Dx6, FIG. 18D

Molecule: N.N.[Cl][Pt][Cl] [cisplatin, reference compound]
- TGImax ([1]; 7.5 mg/kg IP Q7Dx2, FIG. 18C): 70%
- TGImax ([2]; 7.5 mg/kg IP Q7Dx3, FIG. 18B): 44%

Molecule: COc1cccc2c1C(=O)c1c(O)c3c(c(O)c1C2=O)C[C@@](O)(C(=O)CO)C[C@@H]3O[C@H]1C[C@H](N)[C@H](O)[C@H](C)O1 [doxorubicin]
- TGImax ([2]; 1 mg/kg IV once daily for 5 days, FIG. 18B): 27%

Molecule: Nc1ccn([C@@H]2O[C@H](CO)[C@@H](O)C2(F)F)c(=O)n1 [gemcitabine, reference compound]
- TGD [1, 10]: 241%
- TGImax [1, 10]: 84%
- TGImax ([2]; 80 mg/kg IP Q3Dx4, FIG. 18B): 64%

Molecule: O=P1(NCCCl)OCCCN1CCCl (stereo not shown) [ifosfamide]
- TGImax ([2]; 120 mg/kg IP QDx3, FIG. 18B): 10%

Molecule: Cn1nnc2c(C(N)=O)ncn2c1=O [temozolomide, reference compound]
- TGImax ([3]; 20 mg/kg orally daily for first 5 days of a 7-day cycle, two cycles, FIG. 18A): 67%

Molecule: huM25-vcMMAE-E2: huM25-vcMMAE ADC preparation enriched in DAR2 by hydrophobic interaction chromatography
- TGImax ([1]; 12 mg/kg IP Q4Dx6, FIG. 14C/18C): 87%
- TGD [1, 11]: 193%
- TGImax [1, 11]: 75%
- in vitro cell killing compared with isotype ADC [4]: superior to that seen with non-targeting isotype-vcMMAE ADCs
- in vitro cell killing [5]: minimal cancer cell killing
- maximum tumor growth inhibition (TGImax) ([3]; MMAE-equivalent doses IP every seven days for three doses, FIG. 17): ≥ 84%
- death, percentage of animals [6]: 25%
- TGImax ([2]; 6 mg/kg IP Q4Dx6, FIG. 14B/18B): 91%
- in vitro cell killing compared with isotype ADC [7]: superior to that seen with non-targeting isotype-vcMMAE ADCs
- in vitro cell killing compared with isotype ADC [8]: superior to that seen with non-targeting isotype-vcMMAE ADCs

B1: huAD208.4.1-PBD-DAR2: anti-LRRC15 PBD ADC of huAD208.4.1, cross-reactive to human and mouse LRRC15 (conjugate)
VH: EVQLVQSGAEVKKPGSSVKVSCKASGFTFTDYYIHWVKQAPGQGLEWIGLVYPYIGGTNYNQKFKGKATLTVDTSTTTAYMEMSSLRSEDTAVYYCARGDNKYDAMDYWGQGTTVTVSS
VL: DIVLTQSPDSLAVSLGERATINCRASQSVSTSSYSYMHWYQQKPGQPPKLLIKYASSLESGVPDRFSGSGSGTDFTLTISSLQAEDVAVYYCEQSWEIRTFGGGTKVEIK
- in vitro cell killing effect compared with isotype-PBD-DAR2 [9]: higher cell killing effect than isotype-PBD-DAR2
